Test system: circulating CD8+ TSP cells and CD34+ SP+ HSCs
Details: human peripheral blood
Excerpt: Peripheral blood mononuclear cells (PBMCs) from healthy donors were isolated from buffy coats purchased from New York Blood Center. Gut T cells were obtained from uninvolved intestine in patients undergoing surgery for diverticular disease or gut biopsies. Bone marrow aspirates were obtained from patients with cancer undergoing diagnostic bone marrow biopsies. In some patients, blood samples were collected before and after stem cell mobilization protocol with plerixafor. […] The cells were then washed in ice-cold Hoechst wash buffer and analyzed with BD LSR-II containing UV laser.

With `c1cc(CN2CCCNCCNCCCNCC2)ccc1CN1CCCNCCNCCCNCC1` [plerixafor, Plerixafor] the “circulating CD8+ TSP cells” value (baseline vs after mobilization, within 24 hours of injection, n=6) was “marked increase” and the “mobilization of CD34+ SP+ HSCs” value (concurrent with the CD8+ TSP increase) was “mobilization”.

— patent publication US11213546B2, “Methods to mobilize tissue resident cells for adoptive t cell therapy” (Emory University, priority 2017, dated 2022)
